# Measurements from patent publication US9238034B2, “FN14 antagonists and therapeutic uses thereof” (THE TRANSLATIONAL GENOMICS RESEARCH INSTITUTE, priority 2013, dated 2016).
# Columns and labels:
# TWEAK-Fn14 signaling = assay: Cell based NF-κB luciferase reporter assay, Fn14-NF-κB-Luc cells stimulated with TWEAK; design: species or system human
# Description: NF-κB luciferase reporter Assay. The capacity of sTWEAK or sTWEAK variants to activate Fn14 signaling was evaluated using engineered reporter cell lines that express luciferase upon NF-κB activation. Two reporter cell lines were utilized for these experiments. HEK293 NF-κB luciferase (courtesy of Dr. Jeff Winkles) were generated by transfecting HEK293 cells with a reporter plasmid containing 5 copies of a consensus NF-κB binding site upstream of a minimal CMV promoter driving expression of firefly luciferase. The second cell line, designated HEK293 NF-κB luciferase Fn14 FL, was generated by stably transfecting the HEK293 NF-κB luciferase cell line with full length Fn14. To assay the binding of sTWEAK or sTWEAK variants to Fn14, reporter cells were seeded in tissue culture treated white 96-well plates at 1×10^4 cells/well in 80 μL Opti-MEM media (Invitrogen) and incubated for 48 hr at 37° C. After 48 hr incubation, 20 μL of 5× purified recombinant TWEAK (Peprotech Inc.; 150 ng/mL) in 1 mg/mL BSA in PBS was added to each well and incubated for 5 hr at 37° C. as positive control. Similarly, equivalent amounts of sTWEAK or sTWEAK variant prepared via IVTTas determined using ELISA assay described above was added in 20 μl. IVTT solution lacking a cDNA template in 1 mg/mL BSA in PBS and 1 mg/mL BSA in PBS alone was used as an additional control. At the end of 5 hr incubation, the luminescent signal was determined using Bright-Glo assay kit (Promega, Madison, Wis.) according to the manufacturer's instructions.
# Briefly, Fn14-NF-κB-Luc reporter cells, (Fn14 overexpressing HEK293 NF-κB luciferase cells), were seeded in tissue culture treated white 96-well plates at 1×10^4 cells/well in 80 μL Opti-MEM media (Invitrogen) and incubated for 48 hr at 37° C. […] Luminescent signal was determined using Bright-Glo assay kit (Promega, Madison, Wis.) according to the manufacturer's instructions and normalized to negative control. […] IC50 values for dose response curve were determined using the curve fitting functionality of GraphPad Prism software.
# Fn14 = target: T1, Fn14 (Homo sapiens, UniProt Q9NP84); assay: Surface Plasmon Resonance assay, Fn14-Fc sensor surface; format: binding; settings: Fn14 surface, SPR, 25 degrees Celsius
# T1 construct: the human Fc fragment-tagged Fn14 extracellular domain (R&D Systems) was captured
# T1 sequence (Q9NP84 28-80 limits assumed): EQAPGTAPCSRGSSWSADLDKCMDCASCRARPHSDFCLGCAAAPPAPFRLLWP
# Description: Surface Plasmon Resonance (SPR) Assay. The binding affinity of at least one of the compounds (e.g., L524-0366) to TWEAK and Fn14-Fx was determined using a BIAcore T100 optical biosensor (GE Healthcare) at 25 degrees Celsius at the Arizona Proteomics Consortium. Recombinant human TWEAK (20 μg/mL in 10 mM HEPES pH 7.4, 150 mM NaCl, 3 mM EDTA, 0.05% Tween 20) or recombinant human Fn14-Fc (20 μg/mL in 10 mM NaOAc pH 4.0) were covalently coupled to separate flow cells on a BIAcore CM5 sensor chip using standard amine coupling chemistry as per manufacturer's protocol. Final immobilization levels were 6000 Response Units (RU) for TWEAK and 13,000 RU for FN14-Fc. The first flow path of the chip was treated with the same coupling and blocking reagents without protein and was used as a reference for each binding cycle. Functionality of the TWEAK and the Fn14-Fc sensor surfaces were verified by injecting Fn14-Fc and TWEAK over them respectively. Serial dilutions of L524-0366 or cycloheximide (control) from 0 to 50 μM were made in running buffer (10 mM HEPES pH 7.4, 150 mM NaCl, 3 mM EDTA, 1% DMSO). […] Equilibrium dissociation constants for the small molecules were calculated by fitting the double reference subtracted data to Req=((CRmax)/(KD+C))+RI, where RI is the bulk refractive index contribution.
structure (smiles),measurement,setting,value
O=C(c1cn(-c2cccc(Cl)c2)nn1)N1CCSCC1 [Compound L524-0366],inhibition of TWEAK-induced NF-κB driven luciferase activity,"TWEAK-Fn14 signaling; Fn14-NF-κB-Luc cells, 20 μM",significant inhibition
same,IC50,"TWEAK-Fn14 signaling; Homo sapiens, Fn14-NF-κB-Luc cells stimulated with TWEAK, 0.75 μM to 250 μM, read-out: IC50, TWEAK-Fn14 stimulated luciferase induction",7.8 µM
same,fold higher inhibitory activity against TWEAK-Fn14 signaling,TWEAK-Fn14 signaling; TWEAK/Fn14-NF-κB-Luc versus TNFα/NF-κB-Luc IC50,approximately 5 fold
same,Kd,Fn14,7.12 µM
